These results are taken from publication PMC11002876, “KcsA-Kv1.x chimeras with complete ligand-binding sites provide improved predictivity for screening selective Kv1.x blockers” (The Journal of Biological Chemistry, 2024).

Assay [1] deals with T1, KcsA-Kv1.2 T-only chimera (Streptomyces lividans, UniProt P0A334, R52A/G53D/A54E/P55R/G56E/A57S/L59F/I60P/T61S/Y62I/R64D).
T1 sequence (P0A334 1-160 R52A/G53D/A54E/P55R/G56E/A57S/L59F/I60P/T61S/Y62I/R64D): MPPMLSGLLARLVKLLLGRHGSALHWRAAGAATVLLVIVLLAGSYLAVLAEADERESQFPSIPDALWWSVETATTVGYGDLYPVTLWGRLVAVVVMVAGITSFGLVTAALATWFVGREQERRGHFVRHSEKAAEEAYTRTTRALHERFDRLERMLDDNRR
The assay is described as follows: Phage ELISA-binding assay, KcsA-Kv1.2 T-only. More on the design: species or system human Kv1.2 turret in Streptomyces lividans KcsA. Particulars: toxin displayed on M13 phage, Fig. 7C. As to the method: (§1) Phage display test solutions were prepared according to routine phage display protocols ([62]). Phosphorylated and annealed oligonucleotides encoding the peptide construct were ligated into linearized pAS62 phagemid vector (https://patents.google.com/patent/WO2022144560A1/en) at a vector/insert ratio of 1:3. The final phagemid construct harbored a signal sequence followed by the peptide of interest, a linker sequence ([…]), and the C-terminal part of the P3 coat protein (amino acids: 216-424 of NP_510891.1). Chemically competent XL1-Blue E. coli cells (2022249, Agilent) were transformed with the ligation product and then streaked onto ampicillin (100 μg/ml) containing LB/Amp plates and incubated for 16 h at 37 °C. A few clones were sequenced, and a single colony with confirmed target sequence was inoculated into 3 ml 2 YT medium supplemented with 100 μg/ml ampicillin and incubated at 37 °C until the culture reached midlog phase. The culture was infected with M13KO7 helper phage (N0315S, New England Biolabs) (phage/cell ratio 10:1) and was incubated for 30 min at 37 °C. The 3 ml culture was transferred into 200 ml 2YT medium, supplemented with 100 μg/ml ampicillin and 25 μg/ml kanamycin, and incubated overnight at 37 °C. The overnight cell culture (200 ml) was pelleted by centrifugation at 8000g for 10 min in 400 ml centrifuge tubes at 4 °C. […] The particle concentrations of phage solutions were determined using a NanoDrop One C (Thermo Fisher Scientific) spectrophotometer. The phage particle concentration was assessed according to the formula: (A268–A320) × 5 × 10^12 particles/ml ([62]). […]
(§2) Phage stock solutions were diluted to working concentration with phage resuspension buffer supplemented with 2 mM DDM. […] Following blocking, the wells were washed 4× with washing buffer (300 μl TBS-Tween, 0.1% v/v) using a Wellwash Versa microplate washer (Thermo Fisher Scientific); then 50 μl phage solution (in TBS-BSA-Tween, 0.1% v/v, 2 mM DDM) at determined phage concentration was added to the wells and incubated for 1 h at room temperature on a horizontal shaker. […]

A further assay deals with T2, KcsA-Kv1.1 T+F chimera (Streptomyces lividans, UniProt P0A334, R52A/G53E/A54E/P55A/G56E/A57S/Q58H/L59F/I60S/T61S/Y62I/R64D/L81M).
T2 sequence (P0A334 1-160 R52A/G53E/A54E/P55A/G56E/A57S/Q58H/L59F/I60S/T61S/Y62I/R64D/L81M): T1 sequence (P0A334 1-160 R52A/G53D/A54E/P55R/G56E/A57S/L59F/I60P/T61S/Y62I/R64D) with D53E, R55A, Q58H, P60S, L81M
The assay is described as follows: Phage ELISA-binding assay, KcsA-Kv1.1 T+F. To be noted: toxin displayed on M13 phage; Fig. 8D. More on the design: species or system human Kv1.1 turret and filter in Streptomyces lividans KcsA. On the procedure:
as §1, §2

In a further assay the test system is human Kv1.3. Particulars: human Kv1.3 channel blocking, patch-clamp; read-out: IC50, Kv1.x blocking (Kv1.3); cited from earlier work. The text has this:
Table 1 Summary of chimeric protein-binding prediction studies in the light of IC50 values | column: Kv1.x blocking / IC50 (nM) || Peptide toxins of venomous animal origin as lead molecules for optimization may offer an advantage over small molecules in terms of potentially greater affinity and specificity. These miniproteins are usually up to 50 amino acids in length and can adopt distinct conformation with secondary structural elements stabilized by several disulfide bonds ([9], [10], [11]). Due to their considerable surface area, miniproteins can form stable complexes with target proteins through extensive interaction surfaces ([12], [13]). The miniprotein Kv1.3 blocker drug candidate, Dalazatide—a synthetic derivative ... || Our initial investigation focused on assessing the relative binding affinities of various channel-blocking toxins to the T-only version of the KcsA-Kv1.3 chimera. Subsequently, we evaluated whether these affinities aligned with the toxins' blocking efficacy on native human Kv1.3 channels, as determined by patch-clamp assay.

For the next assay, the system named is human Kv1.2. To be noted: human Kv1.2 channel blocking, patch-clamp; read-out: IC50, Kv1.x blocking (Kv1.2); cited from earlier work. As to the method: Elution was done at 1 ml/min flow rate. Eluted peak fractions (1 ml) were analyzed by SDS-PAGE, then pooled and concentrated. The concentration of the purified protein was determined by measuring the UV absorbance at 280 nm using the protein extinction coefficient calculator in the ProtParam tool of Ex ...
On the technique in general: The patch-clamp technique gives a direct electrical read-out from membranes.

Each structure is given as a SMILES string. Where a chain is given by its changes, count along the chain named.

On to `CC[C@H](C)[C@H](NC(=O)[C@H](CCC(=O)O)NC(=O)[C@@H](NC(=O)CN)C(C)C)C(=O)N[C@@H](CC(N)=O)C(=O)N[C@H](C(=O)N[C@@H](CCCCN)C(=O)N[C@H]1CSSC[C@@H]2NC(=O)[C@H](CCCCN)NC(=O)CNC(=O)[C@H](Cc3ccccc3)NC(=O)[C@H](CCCNC(=N)N)NC(=O)[C@H](CCSC)NC(=O)CNC(=O)[C@H](C)NC(=O)[C@H](CC(=O)O)NC(=O)[C@H](CCCCN)NC(=O)[C@@H]3CSSC[C@@H](C(=O)N[C@H](C(=O)N4CCC[C@H]4C(=O)N[C@@H](CCCCN)C(=O)O)[C@@H](C)O)NC(=O)[C@H](Cc4c[nH]cn4)NC(=O)[C@H](CSSC[C@H](NC(=O)[C@H](CCC(N)=O)NC(=O)[C@@H]4CCCN4C(=O)[C@H](CO)NC(=O)CNC(=O)[C@H](CO)NC1=O)C(=O)N[C@@H](CC(C)C)C(=O)N[C@@H](CCCCN)C(=O)N1CCC[C@H]1C(=O)N3)NC(=O)[C@H](CCCCN)NC(=O)[C@H](CCCNC(=N)N)NC(=O)[C@H](CC(N)=O)NC(=O)[C@H](CCSC)NC2=O)C(C)C` [KTX1, Kaliotoxin-1], for which the “phage binding to KcsA-Kv1.2 T-only, in words” value in assay [1] is listed as “inconsistent with their published channel blocking potencies”. Further, at KcsA-Kv1.1 T+F chimera, the “phage binding to KcsA-Kv1.1 T+F, in words” value is listed as “ShK > KTX1”. For the same compound, the half-inhibitory concentration (IC50) – broadly, the concentration that inhibits the measured activity by half – with human Kv1.3 is 0.65 nM; in the assay with human Kv1.2, greater than 1000 nM.
